Like-named read-outs stand apart in the source and are kept apart here.
Biological target: HiBit-WIZ fusion protein (Homo sapiens, UniProt O95785+Q96SW2)
Assay: Quantification of WIZ protein levels in HiBit tag fusion protein assay (WIZ HiBit assay in 293T cells)
Type: cell-based
Set-up: Dmax: dose or concentration left out as unconfirmed
Conditions: for remaining activity at up to 25 µM: read-out: WIZ Amax; for DC50: WIZ HiBit assay in 293T cells, 10-point, 5-fold dose response, highest concentration 25 μM, about 18 hours, read-out: WIZ AC50
[1] = HEK-293T, 100 minus Amax, 293T cells, read-out: % degradation of WIZ (100-Amax)
[2] = HEK-293T, DMSO-normalized, curve-fitted percentage of WIZ-HiBit remaining at 25 uM, 293T cells

HiBit-WIZ fusion protein, sequence (O95785 whole entry, the tested form may be a part): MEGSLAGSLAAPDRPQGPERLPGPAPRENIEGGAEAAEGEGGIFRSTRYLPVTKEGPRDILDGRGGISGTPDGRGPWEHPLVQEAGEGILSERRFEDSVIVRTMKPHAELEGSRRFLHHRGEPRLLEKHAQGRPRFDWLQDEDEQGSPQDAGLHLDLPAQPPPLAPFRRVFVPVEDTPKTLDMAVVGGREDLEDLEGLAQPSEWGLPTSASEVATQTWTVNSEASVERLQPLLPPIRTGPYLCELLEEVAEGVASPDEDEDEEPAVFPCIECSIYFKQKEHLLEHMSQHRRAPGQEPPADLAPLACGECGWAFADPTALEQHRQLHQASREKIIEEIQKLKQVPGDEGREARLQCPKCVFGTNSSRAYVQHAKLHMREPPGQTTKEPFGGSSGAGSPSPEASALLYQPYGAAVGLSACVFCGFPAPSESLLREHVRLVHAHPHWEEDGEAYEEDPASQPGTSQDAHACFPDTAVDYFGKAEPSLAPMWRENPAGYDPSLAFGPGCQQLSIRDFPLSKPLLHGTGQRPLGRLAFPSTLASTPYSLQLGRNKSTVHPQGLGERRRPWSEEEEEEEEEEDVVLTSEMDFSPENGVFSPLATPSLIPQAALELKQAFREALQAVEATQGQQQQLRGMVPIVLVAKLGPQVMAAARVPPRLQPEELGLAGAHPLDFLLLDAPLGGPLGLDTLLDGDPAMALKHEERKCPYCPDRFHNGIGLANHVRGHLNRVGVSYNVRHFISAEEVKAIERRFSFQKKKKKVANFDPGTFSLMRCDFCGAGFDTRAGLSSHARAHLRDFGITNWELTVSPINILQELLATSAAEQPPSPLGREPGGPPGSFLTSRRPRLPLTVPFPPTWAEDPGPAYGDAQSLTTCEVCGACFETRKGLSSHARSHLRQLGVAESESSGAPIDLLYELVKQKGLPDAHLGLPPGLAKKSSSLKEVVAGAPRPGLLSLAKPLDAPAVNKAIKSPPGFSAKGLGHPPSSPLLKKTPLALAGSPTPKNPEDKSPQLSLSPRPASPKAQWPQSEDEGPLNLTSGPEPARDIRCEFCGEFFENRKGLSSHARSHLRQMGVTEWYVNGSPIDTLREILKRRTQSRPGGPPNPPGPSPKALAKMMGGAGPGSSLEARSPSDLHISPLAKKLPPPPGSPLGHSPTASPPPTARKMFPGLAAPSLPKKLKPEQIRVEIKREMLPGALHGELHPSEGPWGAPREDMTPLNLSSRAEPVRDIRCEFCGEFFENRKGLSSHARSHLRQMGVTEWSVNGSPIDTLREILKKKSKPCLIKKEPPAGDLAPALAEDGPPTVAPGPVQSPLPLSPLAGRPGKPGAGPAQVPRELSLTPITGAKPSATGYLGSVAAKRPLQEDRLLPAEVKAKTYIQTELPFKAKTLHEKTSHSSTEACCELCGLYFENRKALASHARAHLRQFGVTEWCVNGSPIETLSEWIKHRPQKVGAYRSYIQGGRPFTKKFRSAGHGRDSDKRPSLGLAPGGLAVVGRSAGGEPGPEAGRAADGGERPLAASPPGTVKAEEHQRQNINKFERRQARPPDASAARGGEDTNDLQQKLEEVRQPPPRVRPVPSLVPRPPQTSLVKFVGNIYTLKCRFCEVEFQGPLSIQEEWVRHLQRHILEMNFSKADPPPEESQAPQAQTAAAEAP
HiBit-WIZ fusion protein, sequence (Q96SW2 whole entry, the tested form may be a part): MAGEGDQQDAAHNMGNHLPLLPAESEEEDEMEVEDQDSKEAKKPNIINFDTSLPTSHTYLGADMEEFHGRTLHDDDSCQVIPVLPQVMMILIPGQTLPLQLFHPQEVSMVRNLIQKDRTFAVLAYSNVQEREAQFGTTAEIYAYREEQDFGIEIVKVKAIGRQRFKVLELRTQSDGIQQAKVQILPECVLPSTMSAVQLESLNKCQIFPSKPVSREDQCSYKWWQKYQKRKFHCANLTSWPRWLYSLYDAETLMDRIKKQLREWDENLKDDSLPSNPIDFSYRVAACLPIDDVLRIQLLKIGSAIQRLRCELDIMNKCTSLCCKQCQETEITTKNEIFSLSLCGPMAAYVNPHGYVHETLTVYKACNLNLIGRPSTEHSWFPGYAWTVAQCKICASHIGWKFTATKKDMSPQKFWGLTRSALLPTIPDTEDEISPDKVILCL
HiBit-WIZ fusion protein, sequence (Q16531 whole entry partner, the tested form may be a part): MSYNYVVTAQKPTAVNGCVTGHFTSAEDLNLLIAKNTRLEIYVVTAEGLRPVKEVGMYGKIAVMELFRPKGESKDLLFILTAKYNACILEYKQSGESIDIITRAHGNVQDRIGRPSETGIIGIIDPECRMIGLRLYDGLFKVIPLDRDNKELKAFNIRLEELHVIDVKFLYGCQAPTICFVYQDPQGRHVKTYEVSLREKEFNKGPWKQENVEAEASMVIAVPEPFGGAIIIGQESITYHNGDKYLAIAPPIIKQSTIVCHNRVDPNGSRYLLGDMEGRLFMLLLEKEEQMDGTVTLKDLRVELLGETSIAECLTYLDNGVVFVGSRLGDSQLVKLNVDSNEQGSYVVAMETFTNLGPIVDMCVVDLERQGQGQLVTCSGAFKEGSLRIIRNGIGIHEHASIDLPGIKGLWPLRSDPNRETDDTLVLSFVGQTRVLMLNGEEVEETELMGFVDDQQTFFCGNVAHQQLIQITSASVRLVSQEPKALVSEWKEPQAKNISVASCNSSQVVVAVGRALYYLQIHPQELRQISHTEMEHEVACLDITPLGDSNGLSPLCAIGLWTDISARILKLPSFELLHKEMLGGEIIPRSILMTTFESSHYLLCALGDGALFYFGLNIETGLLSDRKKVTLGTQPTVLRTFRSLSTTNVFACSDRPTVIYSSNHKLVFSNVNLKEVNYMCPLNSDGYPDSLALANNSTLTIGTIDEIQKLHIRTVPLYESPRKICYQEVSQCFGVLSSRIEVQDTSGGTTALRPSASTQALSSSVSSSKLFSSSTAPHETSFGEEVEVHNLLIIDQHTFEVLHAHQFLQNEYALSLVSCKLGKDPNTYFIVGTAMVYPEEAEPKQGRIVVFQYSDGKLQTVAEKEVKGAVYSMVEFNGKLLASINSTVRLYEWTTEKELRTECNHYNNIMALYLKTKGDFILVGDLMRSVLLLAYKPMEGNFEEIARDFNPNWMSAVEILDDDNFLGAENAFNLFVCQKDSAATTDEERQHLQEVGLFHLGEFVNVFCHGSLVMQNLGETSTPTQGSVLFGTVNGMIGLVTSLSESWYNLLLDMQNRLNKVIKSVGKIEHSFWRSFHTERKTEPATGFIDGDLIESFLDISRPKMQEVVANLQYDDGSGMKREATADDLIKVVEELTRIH

| SMILES | Dmax [1] [%] | remaining activity at up to 25 µM [2] [%] | DC50 [nM] | % degradation of WIZ (100-Amax) (100 minus Amax, at 25 uM, 293T cells) [%] | WIZ Amax (DMSO-normalized, curve-fitted percentage of WIZ-HiBit remaining at 25 uM, 293T cells) [%] | Dmax (HEK-293T, read-out: % degradation of WIZ (100-Amax), 100 minus Amax, 293T cells) [%] | remaining activity (HEK-293T, read-out: WIZ Amax, DMSO-normalized, curve-fitted percentage of WIZ-HiBit remaining at 25 uM, 293T cells) [%] |
| --- | --- | --- | --- | --- | --- | --- | --- |
| CCc1nc(C)c(CN2CCCC[C@@H]2COc2ccc3c(c2)CN(C2CCC(=O)NC2=O)C3=O)[nH]1 (stereo partly drawn) [Compound I-50dh] | 66.9 | 33.1 | 6530 |  |  |  |  |
| COC(=O)[C@@H]1CC[C@H](CN2CCCC[C@H]2COc2ccc3c(c2)CN(C2CCC(=O)NC2=O)C3=O)C1 (stereo partly drawn) [Compound I-50cz] | 49.8 | 50.2 | > 25000 |  |  |  |  |
| Cc1cc(O)cc(C(=O)N2CCCC[C@H]2COc2ccc3c(c2)CN(C2CCC(=O)NC2=O)C3=O)c1 (stereo partly drawn) [Compound I-72hi] | 13.8 | 86.2 | > 25000 |  |  |  |  |
| Cc1nc(-c2cccc(CN3CCCC[C@@H]3COc3ccc4c(c3)CN(C3CCC(=O)NC3=O)C4=O)c2)no1 (stereo partly drawn) [Compound I-50du] | 78.4 | 21.6 | 4260 |  |  |  |  |
| CC(C)Cn1cc(CN2CCCC[C@@H]2COc2ccc3c(c2)CN(C2CCC(=O)NC2=O)C3=O)cn1 (stereo partly drawn) [Compound I-50dw] | 99 | 1 | 8 |  |  |  |  |
| COC(=O)c1nn(-c2cccc(C(F)(F)F)c2)cc1CN1CCCC[C@H]1COc1ccc2c(c1)CN(C1CCC(=O)NC1=O)C2=O (stereo partly drawn) [Compound I-50ay] | 25.7 | 74.3 | > 25000 |  |  |  |  |
| Cc1onc(-c2ccccc2)c1CC(=O)N1CCCC[C@H]1COc1ccc2c(c1)CN(C1CCC(=O)NC1=O)C2=O (stereo partly drawn) [Compound I-72gp] | 14.4 | 85.6 | > 25000 |  |  |  |  |
| O=C1CCC(N2Cc3cc(OC[C@H]4CCCCN4Cc4ccccc4N4CCNCC4)ccc3C2=O)C(=O)N1 (stereo partly drawn) [Compound I-106, 3-(1-oxo-5-(((R)-1-(2-(piperazin-1-yl)benzyl)piperidin-2-yl)methoxy)isoindolin-2-yl)piperidine-2,6-dione] | 80.1 | 19.9 | 2560 |  |  |  |  |
| Cn1nccc1-c1cccc(C(=O)N2CCCC[C@H]2COc2ccc3c(c2)CN(C2CCC(=O)NC2=O)C3=O)c1 (stereo partly drawn) [Compound I-72gz] | 13.7 | 86.3 | > 25000 |  |  |  |  |
| CC(C)c1cc(C(=O)N2CCCC[C@H]2COc2ccc3c(c2)CN(C2CCC(=O)NC2=O)C3=O)no1 (stereo partly drawn) [Compound I-72cf] | 35 | 65 | > 25000 |  |  |  |  |
| COc1ccccc1CN1CCCC[C@H]1COc1ccc2c(c1)CN(C1CCC(=O)NC1=O)C2=O (stereo partly drawn) [Compound I-50d] | 78.3 | 21.7 | 784 |  |  |  |  |
| COC(=O)c1ccc(Oc2ccc(CN3CCCC[C@@H]3COc3ccc4c(c3)CN(C3CCC(=O)NC3=O)C4=O)cc2)cc1 (stereo partly drawn) [Compound I-50bh] | 99.9 | 0.1 | 5 |  |  |  |  |
| COc1c(F)cc(C(=O)N2CCCC[C@H]2COc2ccc3c(c2)CN(C2CCC(=O)NC2=O)C3=O)cc1F (stereo partly drawn) [Compound I-72eg] | 72.1 | 27.9 | 2250 |  |  |  |  |
| Cc1noc(C)c1CN1CCCC[C@@H]1COc1ccc2c(c1)CN(C1CCC(=O)NC1=O)C2=O (stereo partly drawn) [Compound I-50el] | 30.3 | 69.7 | > 25000 |  |  |  |  |
| O=C1CCC(N2Cc3cc(OC[C@H]4CCCCN4CC4CCN(C(=O)OCc5ccccc5)CC4)ccc3C2=O)C(=O)N1 (stereo partly drawn) [Compound I-50cl] | 77.7 | 22.3 | 644 |  |  |  |  |
| COC(=O)[C@@H]1CC[C@H](CN2CCCC[C@@H]2COc2ccc3c(c2)CN(C2CCC(=O)NC2=O)C3=O)C1 (stereo partly drawn) [Compound I-50bq] | 72.1 | 27.9 | 1200 |  |  |  |  |
| O=C1CCC(N2Cc3cc(OC[C@H]4CCCCN4Cc4cccc(Cn5cccn5)c4)ccc3C2=O)C(=O)N1 (stereo partly drawn) [Compound I-50en] | 99.8 | 0.2 | 4 |  |  |  |  |
| O=C1CCC(N2Cc3cc(OC[C@H]4CCCCN4CCOCc4ccccc4)ccc3C2=O)C(=O)N1 (stereo partly drawn) [Compound I-183, 3-(5-(((R)-1-(2-(benzyloxy)ethyl)piperidin-2-yl)methoxy)-1-oxoisoindolin-2-yl)piperidine-2,6-dione] | 86.1 | 13.9 | 4 |  |  |  |  |
| COc1cc(CN2CCCC[C@@H]2COc2ccc3c(c2)CN(C2CCC(=O)NC2=O)C3=O)ccc1C (stereo partly drawn) [Compound I-50eu] | 99.3 | 0.7 | 3 |  |  |  |  |
| CCN1CCC(F)(F)CC1COc1ccc2c(c1)CN(C1CCC(=O)NC1=O)C2=O (single isomer, unassigned) [I-252 (Isomer 2), 3-(5-((1-ethyl-4,4-difluoropiperidin-2-yl)methoxy)-1-oxoisoindolin-2-yl)piperidine-2,6-dione] |  |  | 11 | 77.1 | 22.9 |  |  |

| SMILES | Dmax [1] [%] | remaining activity at up to 25 µM [2] [%] | DC50 [nM] | % degradation of WIZ (100-Amax) (100 minus Amax, at 25 uM, 293T cells) [%] | WIZ Amax (DMSO-normalized, curve-fitted percentage of WIZ-HiBit remaining at 25 uM, 293T cells) [%] | Dmax (HEK-293T, read-out: % degradation of WIZ (100-Amax), 100 minus Amax, 293T cells) [%] | remaining activity (HEK-293T, read-out: WIZ Amax, DMSO-normalized, curve-fitted percentage of WIZ-HiBit remaining at 25 uM, 293T cells) [%] |
| --- | --- | --- | --- | --- | --- | --- | --- |
| Cn1cncc1CN1CCCC[C@H]1COc1ccc2c(c1)CN(C1CCC(=O)NC1=O)C2=O (stereo partly drawn) [Compound I-50ag] | 62.8 | 37.2 | 15200 |  |  |  |  |
| CC(C)(C)c1ccc(CN2CCCC[C@@H]2COc2ccc3c(c2)CN(C2CCC(=O)NC2=O)C3=O)cc1 (stereo partly drawn) [Compound I-158] | 94.1 | 5.93 | 0.083 |  |  |  |  |
| O=C1CCC(N2Cc3cc(OC[C@@H]4CCCCN4Cc4cccc(N5CCCC5)c4)ccc3C2=O)C(=O)N1 (stereo partly drawn) [Compound I-50aa] | 95.1 | 4.9 | 412 |  |  |  |  |
| CCN(CC)c1ccc(CN2CCCC[C@H]2COc2ccc3c(c2)CN(C2CCC(=O)NC2=O)C3=O)cn1 (stereo partly drawn) [Compound I-50as] | 84.3 | 15.7 | 327 |  |  |  |  |
| O=C1CCC(N2Cc3cc(OC[C@H]4CCCCN4Cc4ccc(C5CCN(CCF)CC5)cc4)ccc3C2=O)C(=O)N1 (stereo partly drawn) [Compound I-198, 3-(5-(((R)-1-(4-(1-(2-fluoroethyl)piperidin-4-yl)benzyl)piperidin-2-yl)methoxy)-1-oxoisoindolin-2-yl)piperidine-2,6-dione] | 68 | 32 | 13 |  |  |  |  |
| COc1cc(OC)nc(C(=O)N2CCCC[C@H]2COc2ccc3c(c2)CN(C2CCC(=O)NC2=O)C3=O)n1 (stereo partly drawn) [Compound I-72is] | 0.9 | 99.1 | > 25000 |  |  |  |  |
| O=C1CCC(N2Cc3cc(OC[C@@H]4CCCCN4C(=O)c4[nH]nc5c4CCCC5)ccc3C2=O)C(=O)N1 (stereo partly drawn) [Compound I-72ix] | 13 | 87 | > 25000 |  |  |  |  |
| O=C1CCC(N2Cc3cc(OC[C@@H]4CCCCN4Cc4cnn(C5CCCCC5)c4)ccc3C2=O)C(=O)N1 (stereo partly drawn) [Compound I-50p] | 93.2 | 6.8 | 47 |  |  |  |  |
| COc1ccc(C(C)(C)C(=O)N2CCCC[C@H]2COc2ccc3c(c2)CN(C2CCC(=O)NC2=O)C3=O)cc1 (stereo partly drawn) [Compound I-72fz] | 9.1 | 90.9 | > 25000 |  |  |  |  |
| CCN1CCC(c2ccccc2CN2CCCC[C@@H]2COc2ccc3c(c2)CN(C2CCC(=O)NC2=O)C3=O)CC1 (stereo partly drawn) [Compound I-124, 3-(5-(((R)-1-(2-(1-ethylpiperidin-4-yl)benzyl)piperidin-2-yl)methoxy)-1-oxoisoindolin-2-yl)piperidine-2,6-dione] | 94.4 | 5.61 | 40 |  |  |  |  |
| O=C1CCC(N2Cc3cc(OC[C@H]4CCCCN4Cc4ccc(C5CCN(CC6COC6)CC5)cc4)ccc3C2=O)C(=O)N1 (stereo partly drawn) [Compound I-203, 3-(5-(((R)-1-(4-(1-(oxetan-3-ylmethyl)piperidin-4-yl)benzyl)piperidin-2-yl)methoxy)-1-oxoisoindolin-2-yl)piperidine-2,6-dione] | 67.5 | 32.5 | 0.92 |  |  |  |  |
| Cc1nc2ccccn2c1CN1CCCC[C@@H]1COc1ccc2c(c1)CN(C1CCC(=O)NC1=O)C2=O (stereo partly drawn) [Compound I-50cd] | 69.7 | 30.3 | 3740 |  |  |  |  |
| COC(=O)c1ccc(Oc2ccc(CN3CCCC[C@H]3COc3ccc4c(c3)CN(C3CCC(=O)NC3=O)C4=O)cc2)cc1 (stereo partly drawn) [Compound I-50g] | 88.9 | 11.1 | 97 |  |  |  |  |
| O=C1CCC(N2Cc3cc(OC[C@H]4CCCCN4CC4COC4)ccc3C2=O)C(=O)N1 (stereo partly drawn) [Compound I-202] | 58.7 | 41.3 | 83 |  |  |  |  |
| O=C1CCC(N2Cc3cc(OC[C@@H]4CCCCN4CC4CCN(Cc5ccccc5)CC4)ccc3C2=O)C(=O)N1 (stereo partly drawn) [Compound I-50aj] | 99 | 1 | 16 |  |  |  |  |
| CCc1cc(CN2CCCC[C@@H]2COc2ccc3c(c2)CN(C2CCC(=O)NC2=O)C3=O)ccc1C1CCN(CC)CC1 (stereo partly drawn) [Compound I-157, 3-(5-(((R)-1-(3-ethyl-4-(1-ethylpiperidin-4-yl)benzyl)piperidin-2-yl)methoxy)-1-oxoisoindolin-2-yl)piperidine-2,6-dione] |  |  | 160 |  |  | 63 | 37 |
| O=C1CCC(N2Cc3cc(OC[C@@H]4CCCCN4C(=O)c4cccc5cnccc45)ccc3C2=O)C(=O)N1 (stereo partly drawn) [Compound I-72j] | 21.5 | 78.5 | > 25000 |  |  |  |  |
| O=C1CCC(N2Cc3cc(OC[C@H]4CCCCN4Cc4cccc(Cn5ccnc5)c4)ccc3C2=O)C(=O)N1 (stereo partly drawn) [Compound I-50eh] | 97.2 | 2.8 | 13 |  |  |  |  |
| Cc1nc(C(=O)N2CCCC[C@H]2COc2ccc3c(c2)CN(C2CCC(=O)NC2=O)C3=O)c(C)s1 (stereo partly drawn) [Compound I-72fp] | 9.5 | 90.5 | > 25000 |  |  |  |  |

Reference: US11566022B2, “3-(5-methoxy-1-oxoisoindolin-2-yl)piperidine-2,6-dione derivatives and uses thereof” (NOVARTIS AG, priority 2019, dated 2023)
